Experimental findings from patent US20230365493A1, “COMPOUNDS AND METHODS” (DEMAGTECH PTY LTD, priority 2020, published 2023) are described below.

Where a name gives a salt, the structure may show the parent alone.

The test system of one assay is A. thaliana. Put plainly: Herbicidal activity assay, post-emergence, pots. The format is in vivo, Arabidopsis thaliana Col-0. Conditions: A. thaliana Col-0, post-emergence treatments at three and six days after germination, grown 16 days after treatment; for minimal effective concentration: Arabidopsis thaliana, 384 h. Here is the method:
(§1) A range of compounds of the invention were assessed for herbicidal activity against A. thaliana. A. thaliana Col-0 seeds (˜30) were sown in 63×63×59 mm pots consisting of Irish peat that was pre-wet prior to sowing. Seeds were cold-treated for 3 days in the dark at 4° C. to synchronise germination and then grown in a chamber at 22° C., with 60% relative humidity and in a 16 h light/8 h dark photoperiod. Compounds of the invention were initially dissolved in dimethyl sulfoxide (DMSO) at 20 mg/mL and further diluted in water prior to treatments. The surfactant Brushwet (SST Australia) was added to a final concentration of 0.02%. The carrier DMSO was used as a negative control. Seeds or seedlings were treated with solutions of compound that contained 2% of DMSO, using a pipette. Post-emergence treatments were done at three and six days after germination. Seedlings were grown for 16 days after treatment before photos were taken.
The results of this study are represented in the following table, where compounds of the invention are represented by number, and herbicidal activity is represented using the following: ≤125 μM=+++, ≤500 μM=++, ≤2000 μM=+
as §1, with “A.” for “A range of compounds of the invention were assessed for herbicidal activity against A. thaliana. A.”, “Compounds” for “Compounds of the invention”

The next assay relates to Arabidopsis thaliana. Put plainly: Activity of 2,4-DB esters compared with 2,4-DB. The format is in vivo. Conditions: 31.25 μM to 2000 μM; imaged day 12. Here is the method:
Once the Arabidopsis thaliana seeds had germinated, this was Day 0 and an image taken (Treatment—Day 0) to show plants were all at the same stage. Plants were treated either with 2,4-DB or 2-(dimethylamino)ethyl 4-(2,4-dichlorophenoxy)butanoate at concentrations ranging from 31.25 μM to 2000 μM as marked and imaged 12 days later (Treatment—Day 12).
Once the Arabidopsis thaliana seeds had germinated, this was Day 0 and an image taken (Treatment—Day 0) to show plants were all at the same stage. Plants were treated either with 2,4-DB or 2-(dimethylamino)ethyl 4-(2,4-dichlorophenoxy)butanoate hydrochloride at concentrations ranging from 31.25 μM to 2000 μM as marked and imaged 12 days later (Treatment—Day 12).

Take `COc1c(Cl)ccc(Cl)c1C(=O)OCCCN(C)C` [Compound 12, 3-(dimethylamino)propyl 3,6-dichloro-2-methoxybenzoate]: the minimal effective concentration (in general, the lowest level tested that produced the effect sought) with A. thaliana was at most 2000 µM.

Regarding `COc1c(Cl)ccc(Cl)c1C(=O)OCCN1CCCCC1` [Compound 6, 2-(piperidin-1-yl)ethyl 3,6-dichloro-2-methoxybenzoate], in the assay with A. thaliana, the minimal effective concentration is at most 2000 µM.

Compound `COc1c(Cl)ccc(Cl)c1C(=O)OCCCN` [Compound 23, 3-aminopropyl 3,6-dichloro-2-methoxybenzoate] had a minimal effective concentration in the assay with A. thaliana of at most 125 µM.

Consider `COc1c(Cl)ccc(Cl)c1C(=O)OC(C)CN` (stereo not shown) [Compound 22, 1-aminopropan-2-yl 3,6-dichloro-2-methoxybenzoate], for which the minimal effective concentration with A. thaliana was at most 2000 µM.

`COc1c(Cl)ccc(Cl)c1C(=O)OCCN1CCOCC1` [Compound 7, 2-(morpholin-4-yl)ethyl 3,6-dichloro-2-methoxybenzoate] returned a minimal effective concentration in the assay on A. thaliana of at most 125 µM.

Take `COc1c(Cl)ccc(Cl)c1C(=O)OCCN(C(C)C)C(C)C` [Compound 3, 2-(dipropan-2-ylamino)ethyl 3,6-dichloro-2-methoxybenzoate]: in the assay on A. thaliana, the minimal effective concentration is at most 500 µM.

Take `CN(C)CCOC(=O)CCCOc1ccc(Cl)cc1Cl` [2-(dimethylamino)ethyl 4-(2,4-dichlorophenoxy)butanoate]: in the assay on Arabidopsis thaliana, the “activity against Arabidopsis thaliana on an equimolar basis, FIGS. 19 and 20” value (from here on “activity against Arabidopsis thaliana”) is reported as “comparable activity”.

`COc1c(Cl)ccc(Cl)c1C(=O)OCCN` [Compound 19, 2-aminoethyl 3,6-dichloro-2-methoxybenzoate] had a minimal effective concentration with A. thaliana of at most 500 µM.

Turning to `CN(C)CCOC(=O)CCCOc1ccc(Cl)cc1Cl.Cl` [2-(dimethylamino)ethyl 4-(2,4-dichlorophenoxy)butanoate hydrochloride], in the assay on Arabidopsis thaliana, the “activity against Arabidopsis thaliana” value is “comparable activity”.

On to `COc1c(Cl)ccc(Cl)c1C(=O)OC(CN(C)C)CN(C)C` [Compound 26, 1,3-bis(dimethylamino)propan-2-yl 3,6-dichloro-2-methoxybenzoate], for which the minimal effective concentration in the assay on A. thaliana is at most 125 µM.

In the case of `COc1c(Cl)ccc(Cl)c1C(=O)OC1CCN(C)CC1` [Compound 9, 1-methylpiperidin-4-yl 3,6-dichloro-2-methoxybenzoate], in the assay on A. thaliana, the minimal effective concentration is at most 2000 µM.

Turning to `CN(C)CCOC(=O)c1nc(Cl)ccc1Cl.Cl` [3,6-dichloropyridine-2-carboxylic acid 2-(dimethylamino)ethyl ester hydrochloride], in the assay on A. thaliana, the Active at came to 125 µM.

`COc1c(Cl)ccc(Cl)c1C(=O)OCCN1CCCC1` [Compound 5, 2-(pyrrolidin-1-yl)ethyl 3,6-dichloro-2-methoxybenzoate] displayed a minimal effective concentration in the assay with A. thaliana of at most 500 µM.

`COc1c(Cl)ccc(Cl)c1C(=O)OCCc1ccccn1` [Compound 11, 2-(pyridin-2-yl)ethyl 3,6-dichloro-2-methoxybenzoate] yielded a minimal effective concentration in the assay on A. thaliana of at most 125 µM.

Take `COc1c(Cl)ccc(Cl)c1C(=O)OCC1CCCN1C` (stereo not shown) [Compound 10, (1-methylpyrrolidin-2-yl)methyl 3,6-dichloro-2-methoxybenzoate]: in the assay with A. thaliana, the minimal effective concentration is at most 500 µM.

With `COc1c(Cl)ccc(Cl)c1C(=O)OCC(C)(C)N` [Compound 21, 2-amino-2-methylpropyl 3,6-dichloro-2-methoxybenzoate], in the assay with A. thaliana, the minimal effective concentration was at most 500 µM.

On to `O=C(O)CCCOc1ccc(Cl)cc1Cl` [2,4-DB, 4-(2,4-dichlorophenoxy)butanoic acid, reference compound], for which the “activity against Arabidopsis thaliana” value with Arabidopsis thaliana was “comparable activity”.

`COc1c(Cl)ccc(Cl)c1C(=O)SCCN(C)C` [Compound 27, S-(2-(dimethylamino)ethyl) 3,6-dichloro-2-methoxybenzene-1-carbothioate]: the minimal effective concentration with A. thaliana is at most 125 µM.

The compound `COc1c(Cl)ccc(Cl)c1C(=O)OCCN(Cc1ccccc1)Cc1ccccc1` [Compound 25, 2-(dibenzylamino)ethyl 3,6-dichloro-2-methoxybenzoate] had a minimal effective concentration with A. thaliana of at most 2000 µM.

In the assay on A. thaliana, `O=C(O)CC(O)(CC(=O)O)C(=O)O` [1. citrate] registered a minimal effective concentration of at most 125 µM.

Compound `CCN(CC)CCSC(=O)c1c(Cl)ccc(Cl)c1OC` [Compound 28, S-(2-(diethylamino)ethyl) 3,6-dichloro-2-methoxybenzene-1-carbothioate] registered a minimal effective concentration in the assay with A. thaliana of at most 125 µM.

In the assay with A. thaliana, `COc1c(Cl)ccc(Cl)c1C(=O)OCCN(C)CCOC(=O)c1c(Cl)ccc(Cl)c1OC` [Compound 18, (Methylazanediyl)bis(ethane-2,1-diyl) bis(3,6-dichloro-2-methoxybenzoate)] yielded a minimal effective concentration of at most 125 µM.

The compound `CCCCN(CCCC)CCOC(=O)c1c(Cl)ccc(Cl)c1OC` [Compound 4, 2-(dibutylamino)ethyl 3,6-dichloro-2-methoxybenzoate] gave a minimal effective concentration in the assay with A. thaliana of at most 125 µM.

Compound `CC(=NNC(=O)Nc1cccc(F)c1)c1ncccc1C(=O)OCCN(C)C.Cl` [2-(Dimethylamino)ethyl 2-[1-[2-[[(3-fluorophenyl)amino]carbonyl]hydrazinylidene]ethyl]-3-pyridinecarboxylate hydrochloride] yielded an Active at in the assay with A. thaliana of 125 µM.

On to `CN(C)CCOC(=O)c1c(Cl)ccc2cc(Cl)cnc12` [3,7-dichloroquinoline-8-carboxylic acid 2-(dimethylamino)ethyl ester], for which, in the assay with A. thaliana, the Active at worked out at 2000 µM.

Consider `CN(C)CCOC(=O)c1nc(Cl)ccc1Cl` [3,6-dichloropyridine-2-carboxylic acid 2-(dimethylamino)ethyl ester], for which, in the assay with A. thaliana, the Active at was found to be 125 µM.

In the case of `COc1c(Cl)ccc(Cl)c1C(=O)OCCCCCCCCN(C)C` [Compound 15, 8-(dimethylamino)octyl 3,6-dichloro-2-methoxybenzoate], the minimal effective concentration in the assay with A. thaliana is at most 500 µM.

`COc1c(Cl)ccc(Cl)c1C(=O)OCCOCCN(C)C` [Compound 16, 2-(2-(dimethylamino)ethoxy)ethyl 3,6-dichloro-2-methoxybenzoate] gave a minimal effective concentration in the assay on A. thaliana of at most 500 µM.

Consider `COc1c(Cl)ccc(Cl)c1C(=O)OCCN(C)CCO` [Compound 17, 2-((2-hydroxyethyl)(methyl)amino)ethyl 3,6-dichloro-2-methoxybenzoate], for which the minimal effective concentration with A. thaliana was at most 2000 µM.

Take `CN(C)CCOC(=O)c1c(Cl)ccc2cc(Cl)cnc12.Cl` [3,7-dichloroquinoline-8-carboxylic acid 2-(dimethylamino)ethyl ester hydrochloride]: in the assay with A. thaliana, the Active at is 2000 µM.

The compound `CCN(CC)CCOC(=O)c1c(Cl)ccc(Cl)c1OC` [Compound 2, 2-(diethylamino)ethyl 3,6-dichloro-2-methoxybenzoate] had a minimal effective concentration with A. thaliana of at most 125 µM.

On to `CCN(CCOC(=O)c1c(Cl)ccc(Cl)c1OC)c1ccccc1` [Compound 24, 2-(ethyl(phenyl)amino)ethyl 3,6-dichloro-2-methoxybenzoate], for which the minimal effective concentration with A. thaliana is at most 500 µM.

The compound `COc1c(Cl)ccc(Cl)c1C(=O)OCCN1CCN(C)CC1` [Compound 8, 2-(4-methylpiperazin-1-yl)ethyl 3,6-dichloro-2-methoxybenzoate] had a minimal effective concentration in the assay on A. thaliana of at most 2000 µM.

In turn, `CNCCOC(=O)c1c(Cl)ccc(Cl)c1OC` [Compound 20, 2-(methylamino)ethyl 3,6-dichloro-2-methoxybenzoate] returned a minimal effective concentration in the assay on A. thaliana of at most 500 µM.

In the assay with A. thaliana, `CC(C)C1(C)N=C(c2ncccc2C(=O)OCCN(C)C)NC1=O.Cl` (stereo not shown) [2-(Dimethylamino)ethyl 2-[4,5-dihydro-4-methyl-4-(1-methylethyl)-5-oxo-1H-imidazol-2-yl]-3-pyridinecarboxylate hydrochloride] showed an Active at of 500 µM.

In turn, `COc1c(Cl)ccc(Cl)c1C(=O)OCCCCCCN(C)C` [Compound 14, 6-(dimethylamino)hexyl 3,6-dichloro-2-methoxybenzoate] yielded a minimal effective concentration in the assay on A. thaliana of at most 125 µM.

In the assay on A. thaliana, `COc1c(Cl)ccc(Cl)c1C(=O)OCCN(C)C` [Compound 1, 2-(dimethylamino)ethyl 3,6-dichloro-2-methoxybenzoate] returned a minimal effective concentration of at most 500 µM.
